Values after ≈ are worked out from the molar mass of the structure shown. Like-named read-outs stand apart in the source and are kept apart here.
What was measured:
Past. haem. = assay: MIC in brain heart infusion (BHI) broth, two-fold dilutions; assay type: cell-based
Text: (§1) Generally twelve 2 fold dilutions of the test compound are employed, with initial concentration of the test drug being in the range of 50 to 200 mcg./ml. The susceptibility (MIC) of the test organism is accepted as the lowest concentration of compound capable of producing complete inhibition of growth as judged by the naked eye.

Hemoph. pleur. = assay: as above; assay type: cell-based; conditions: 24 h
Text: as §1

Trepo. hyodis. = assay: as above; assay type: cell-based; conditions: 24 h
Text: as §1

Past. mult = assay: as above; assay type: cell-based
Text: as §1

Acto. pyog. = assay: as above; assay type: cell-based; conditions: 24 h
Text: as §1

E. coli = assay: as above; assay type: cell-based; conditions: Escherichia coli
Text: as §1

Staph. aureus = assay: as above; assay type: cell-based; conditions: Staphylococcus aureus
Text: as §1

Fusob. necro. = assay: as above; assay type: cell-based; conditions: 24 h
Text: as §1

Strep. zooedid. = assay: as above; assay type: cell-based; conditions: 24 h; Strep. zooedid. 001, Day 1
Text: as §1

Lact. acidoph. = assay: as above; assay type: cell-based; conditions: 24 h; Lact. acidoph. 001, Day 1
Text: as §1

Lact. sp. = assay: as above; assay type: cell-based; conditions: 24 h; Lact. sp. 001, Day 1
Text: as §1

Morax. bovis = assay: as above; assay type: cell-based
Text: as §1

Past. haem. 010 = assay: mouse protection test; assay type: in vivo; conditions: mice infected i.p. with multilethal amounts of Past. haem. 010
Protocol: Additionally, compound (I) is tested in vivo by the well-known mouse protection test, or by a microbiological (bioassay) determination of serum levels in a variety of mammals (e.g., mouse, rat, dog). For example, at subcutaneous doses of either 100 mg./kg. or 25 mg./kg., there was survival of 5/5 mice infected i.p. with multilethal amounts of Past. haem. 010.

Question: What does the source list for `CC=CC=CC1OC(O)(C(CC)C(=O)NCC=CC=C(C)C(OC)C(C)C2OC(C=CC=CC=C(C)C(=O)c3c(O)cc[nH]c3=O)C(O)C2O)C(O)C(OC2OC(C)C(OC3OC(C)C(OC)C(O)C3OC)C(OC)C2O)C1(C)C` (stereo not drawn) [N--Demethylefrotomycin, N-demethylefrotomycin]?
Answer: MIC (Past. haem.; 24 h): 12.5 µg/mL (≈ 11 µM); MIC (Past. haem.; 24 h, Past. haem. 010, Day 1, read-out: MIC): 3.12 µg/mL (≈ 2.76 µM); MIC (Past. haem.; 24 h, Past. haem. 046, Day 1, read-out: MIC): 25 µg/mL (≈ 22.1 µM); MIC (Past. haem.; 24 h, Past. haem. 061, Day 1, read-out: MIC): 25 µg/mL (≈ 22.1 µM); MIC (Past. haem.; 48 h): 12.5 µg/mL (≈ 11 µM); MIC (Past. haem.; 48 h, Past. haem. 061, Day 2, read-out: MIC): 3.12 µg/mL (≈ 2.76 µM); MIC (Past. haem.; Past. haem. 046, Day 2): 12.5 µg/mL (≈ 11 µM); MIC (Hemoph. pleur.; Hemoph. pleur. 004, Day 1): 12.5 µg/mL (≈ 11 µM); MIC (Hemoph. pleur.; Hemoph. pleur. 005, Day 1): 12.5 µg/mL (≈ 11 µM); MIC (Hemoph. pleur.; Hemoph. pleur. 024, Day 1, read-out: MIC): > 100 µg/mL; MIC (Trepo. hyodis.; Trepo. hyodis. 001, Day 1): 1.56 µg/mL (≈ 1.38 µM); MIC (Trepo. hyodis.; Trepo. hyodis. 002, Day 1): 0.78 µg/mL (≈ 0.689 µM); MIC (Trepo. hyodis.; Trepo. hyodis. 007, Day 1): 1.56 µg/mL (≈ 1.38 µM); MIC (Past. mult; 24 h, Past. mult 006, Day 1, read-out: MIC): 6.25 µg/mL (≈ 5.52 µM); MIC (Past. mult; 24 h, Past. mult 048, Day 1, read-out: MIC): 3.12 µg/mL (≈ 2.76 µM); MIC (Past. mult; 48 h): 12.5 µg/mL (≈ 11 µM); MIC (Past. mult; 48 h, Past. mult 048, Day 2, read-out: MIC): 6.25 µg/mL (≈ 5.52 µM); MIC (Acto. pyog.; Acto. pyog. 002, Day 1): 12.5 µg/mL (≈ 11 µM); MIC (Acto. pyog.; Acto. pyog. 008, Day 1): 12.5 µg/mL (≈ 11 µM); MIC (Acto. pyog.; Acto. pyog. 011, Day 1, read-out: MIC): 100 µg/mL (≈ 88.4 µM); MIC (E. coli; 24 h, E. coli 124, Day 1): > 100 µg/mL; MIC (E. coli; 48 h, E. coli 124, Day 2): > 100 µg/mL; MIC (Staph. aureus; 24 h, Staph. aureus 006, Day 1): > 100 µg/mL; MIC (Staph. aureus; 48 h, Staph. aureus 006, Day 2): > 100 µg/mL; MIC (Fusob. necro.; Fusob. necro. 004, Day 1): 25 µg/mL (≈ 22.1 µM); MIC (Fusob. necro.; Fusob. necro. 006, Day 1): 6.25 µg/mL (≈ 5.52 µM); MIC (Strep. zooedid.): > 100 µg/mL; MIC (Lact. acidoph.): 12.5 µg/mL (≈ 11 µM); MIC (Lact. sp.): > 100 µg/mL; MIC (Morax. bovis; 24 h, Morax. bovis 001, Day 1): 6.25 µg/mL (≈ 5.52 µM); MIC (Morax. bovis; 48 h, Morax. bovis 001, Day 2): 3.12 µg/mL (≈ 2.76 µM); survival of mice (Past. haem. 010; subcutaneous 25 mg./kg.): 5/5; survival of mice (Past. haem. 010; subcutaneous 100 mg./kg.): 5/5
